In one test the test system is Th1 T cells. Kind of test: qPCR on T cell markers, Th1 differentiation of naïve CD4+ T cells. In kind it is cell-based. As to conditions: naïve CD4+ T cells from mouse spleens. Here is the method:
qPCR on T cell markers: Naïve CD4+ T cells were isolated by standard methods from the spleens of Balbc mice. T cells were grown in culture and treated with cytokines specific for differentiate into Th1 and Th17 subtypes. Additionally, T cells were cultured with NU7441 and FK506. qPCR was performed looking at the following markers: Batf3, RORyt, IL17, IL22, TGFBeta, Lymphotoxin, T-Bet.

The subject of test [1] is IL-2. Nature of the test: Secreted IL-2 ELISA, Jurkat cells stimulated with PMA+PHA. In kind it is cell-based, human. As to conditions: for level of IL-2: PMA+PHA 24 hour stimulation. Here is the method: Cell Culture: Human peripheral blood mononuclear cells (PBMC,) and Jurkat cells were purchased from ATCC (PCS-800-011, Manassas, VA). Cells were maintained at 37° C. in a humidified atmosphere composed of 5% CO2. Jurkat cells were cultured in RPMI 1640 medium which was supplemented with 10% FCS and human PBMC was cultured in RPMI 1640 medium which was supplemented with 10% FCS and pen/strep. […] The NU7441 DNA-PKcs inhibitor was added at varying concentrations at the time of stimulation.
Detection of secreted IL-2: Secreted IL-2 was detected by Human IL-2 ELISA Kit from Thermo Scientific (Waltham, MA). The manufacturer's protocol was followed. […] Jurkat cells stimulated with the anti-CD28/CD3 dynabeads were done so according to the manufacturer's protocol at a 1:1 ratio for 24 hours prior to harvesting. After stimulation, supernatant samples of Jurkat cells or PBMCs (2 million cells/mL) were collected and diluted 10 times before the assay. IL-2 standards and samples (50 μL) and Biotinylated antibody reagents (50 μL) were added to each well and the plate was incubated for 3 hours at room temperature. The plate was washed 3 times and 100 μL of Streptavidin-HRP solution was added. After 30 minutes of incubation at room temperature, the plate was washed 3 times. TMB substrate (100 μL) was added and incubated for 30 minutes in the dark at room temperature. Stop solution was added and the absorbance of each well was read at 450 nm using the plate reader.
(In general: ELISA stands for enzyme-linked immunosorbent assay.)

Test [2] relates to IL-2. Nature of the test: Secreted IL-2 ELISA, PBMCs stimulated with PHA+PMA. The test is classed as cell-based, human. As to conditions: PBMC, activation with PMA+PHA. How it is done:
Cell Culture: Human peripheral blood mononuclear cells (PBMC,) and Jurkat cells were purchased from ATCC (PCS-800-011, Manassas, VA). Cells were maintained at 37° C. in a humidified atmosphere composed of 5% CO2. Jurkat cells were cultured in RPMI 1640 medium which was supplemented with 10% FCS and human PBMC was cultured in RPMI 1640 medium which was supplemented with 10% FCS and pen/strep. Both Jurkat cells and PBMC were stimulated with PHA (50 ng/mL) and PMA (1 μg/mL) for 24 hours prior to harvesting for IL-2 detection or 6 hours prior for western blot analysis. The NU7441 DNA-PKcs inhibitor was added at varying concentrations at the time of stimulation. Detection of secreted IL-2: Secreted IL-2 was detected by Human IL-2 ELISA Kit from Thermo Scientific (Waltham, MA). The manufacturer's protocol was followed. Prior to harvesting, cells were treated with PHA (50 ng/ml) and PMA (1 μg/mL) for 24 hours with or without the NU7441 inhibitor. Jurkat cells stimulated with the anti-CD28/CD3 dynabeads were done so according to the manufacturer's protocol at a 1:1 ratio for 24 hours prior to harvesting. After stimulation, supernatant samples of Jurkat cells or PBMCs (2 million cells/mL) were collected and diluted 10 times before the assay. […] Stop solution was added and the absorbance of each well was read at 450 nm using the plate reader.

The test system of the next test is CHK2. Kind of test: Western blot of phosphorylated CHK2 (Thr68) in activated Jurkat cells. The test is classed as cell-based, human. The conditions noted are these: Jurkat activated with PMA+PHA. Here is the method:
(§1) Cell lysis and nuclear extract: Cells were washed with cold PBS twice and centrifuged at 5000 rpm for 5 minutes. For the nuclear extract, pellets were suspended with 800 μL of 10 mN HEPES lysis buffer (10 mM HEPES at pH 7.9, 10 mM KCl, 1 mM DTT, and 1× protease and phosphatase inhibitor) and incubated on ice for 15 minutes. 50 μL of NP-40 (10% in water) was added and the pellets were mixed for 10 seconds. Lysates were centrifuged for 5 minutes at 4° C. at 13,000 rpm. The supernatant solution which is containing the cytosolic fraction was discarded and the pellets were resuspended in 20 mM HEPES lysis buffer (20 mM HEPES at pH 7.9, 0.4 M NaCl, 1 mM DTT, and 1× protease, and phosphatase inhibitor) and incubated on ice for 15 minutes with intermittent mixing. Lysates were centrifuged for 10 minutes at 4° C. at 13,000 rpm. The supernatant containing nuclear extract was stored at -20° C. until they were used for the Western blot analysis. For total cell lysates, cell pellets were resuspended with 100 μL of RIPA buffer (150 mM NaCl, 1% Triton X-100, 0.1% SDS, and 50 mM Tris at pH 8.0) and incubated on ice for 10 minutes. The lysates were centrifuged for 10 minutes at 4° C. at 13,000 rpm and the supernatant solutions were stored at -20° C. until they were used for the Western blot analysis. Western blot analysis: Nuclear extract lysates were separated on 3-8% Tris-Acetate gels (Invitrogen). […]

A further test relates to Cabin1. Kind of test: Western blot of Cabin1 expression in activated Jurkat cells. The test is classed as cell-based, human. As to conditions: Jurkat activated with PMA+PHA. Here is the method: as §1

This is an account of results in US20240245696A1, “INHIBITORS OF DNA PK AND USES THEREOF” (BioVentures, LLC, priority 2017, published 2024).

Structures are written as SMILES.

Consider `O=c1cc(N2CCOCC2)oc2c(-c3cccc4c3sc3ccccc34)cccc12` [NU7441], for which the “Th1 differentiation (markers T-Bet, Lymphotoxin)” value in the test on Th1 T cells was “promoting the expression of Th1 T cells”. Besides, the IL-2 secretion entry in the test on IL-2 [1] (PMA (50 ng/ml)+PHA (1 μg/mL), 24 hours, concentration not stated (FIG. 1B)) is on record as “significantly blocked IL-2 secretion”. The figures for the “level of IL-2” value in the test on IL-2 [1] (2.5 µM NU7441) and in the test on IL-2 [1] (5 μM NU7441) were “significantly decreased” and “further decreased”, respectively. Besides, the “level of IL-2 produced” value with IL-2 [2] was “significantly reduce IL-2 production”. Besides, the “CHK2 phosphorylation at Thr68” value is on record as “reduced CHK2 phosphorylation” in the test on CHK2 and “reduced” in the test on CHK2 (listed as NU744). Moreover, the Cabin1 expression entry in the test with Cabin1 is given as “elevated Cabin1 expression”; in the test on Cabin1 (listed as NU744) it was “increase in Cabin1 expression”.
